# Data as given in patent US12534493B2, “Bridged nucleoside and nucleotide” (Liid Pharmaceuticals, Inc., priority 2020, dated 2026).
# Key:
# Assay type in all cases: binding
# [1] = tested on: single-stranded DNA: 5′-d(ACGAGAACATCC)-3′ (SEQ ID NO: 12); assay: Melting temperature (Tm) measurement, double strand-forming ability, with single-stranded DNA; conditions: duplex with single-stranded DNA SEQ ID NO: 12; for Tm: 10 mM phosphate buffer (pH7.0), 200 mM NaCl, 2.5 μM each oligonucleotide; for ΔTm/mod.: change per modification vs natural oligonucleotide
# Experimental: (§1) A sample solution ([…]) with final concentrations of 10 mM phosphate buffer (pH7.0), 200 mM sodium chloride, and 2.5 μM each oligonucleotide was immersed in boiling water and slowly cooled to room temperature. The sample solution was cooled to 20° C., and the measurement was started. The temperature was raised to 90° C. at a rate of 0.5° C. per minute, and the absorbance at 260 nm was plotted at intervals of 0.5° C. All Tm values were calculated by the midline method and the average of three independent measurement results was taken.
# (§2) conditions: 10 mM sodium phosphate buffer (pH7.0) containing 200 mM NaCl, […] of each strand
# [2] = tested on: single-stranded RNA: 5′-r(ACGAGAACAUCC)-3′ (SEQ ID NO: 11); assay: Melting temperature (Tm) measurement, double strand-forming ability, with single-stranded RNA; conditions: for Tm (N = A): Table 2, full-match RNA N = A, 10 mM sodium phosphate buffer; for Tm (N = A) / Tm: 200 mM NaCl; for Tm / ΔTm/mod.: duplex with single-stranded RNA SEQ ID NO: 11; for Tm: 10 mM phosphate buffer (pH7.0), 2.5 μM each oligonucleotide; for ΔTm/mod.: change per modification vs natural oligonucleotide
# Experimental: as §1, §2
# [3] = tested on: single-stranded RNA:5′-r(ACGAGANCAUCC)-3′, N = U; assay: Tm measurement with single-stranded RNA (base sequence identifying ability), N = U; conditions: mismatch RNA N = U; for ΔTm (N = U), in parentheses: difference from N = A; for Tm (N = U): 10 mM sodium phosphate buffer, 200 mM NaCl
# Experimental: as §1, §2
# [4] = tested on: single-stranded RNA:5′-r(ACGAGANCAUCC)-3′, N = C; assay: Tm measurement with single-stranded RNA (base sequence identifying ability), N = C; conditions: mismatch RNA N = C; for ΔTm (N = C), in parentheses: difference from N = A; for Tm (N = C): 10 mM sodium phosphate buffer, 200 mM NaCl
# Experimental: as §1, §2
# [5] = tested on: single-stranded RNA:5′-r(ACGAGANCAUCC)-3′, N = G; assay: Tm measurement with single-stranded RNA (base sequence identifying ability), N = G; conditions: mismatch RNA N = G; for ΔTm (N = G), in parentheses: difference from N = A; for Tm (N = G): 10 mM sodium phosphate buffer, 200 mM NaCl
# Experimental: as §1, §2
# [6] = tested on: double-stranded hairpin DNA: 5′-d(GGCAGAAGAAAAAGAGACGC)-C18 spacer-d(GCGTCTCTTTTTCTTCTGCC)-3′ (SEQ ID NO: 23); assay: Melting temperature (Tm) measurement, triple strand-forming ability, with double-stranded hairpin DNA; conditions: triplex with double-stranded hairpin DNA; for ΔTm/mod.: change per modification vs natural oligonucleotide; for Tm: footnote: 10 mM sodium phosphate buffer (pH 7.0), 200 mM NaCl, 5 mM MgCl2
# Experimental: […] The sample solution was cooled to 15° C., and the measurement was started. The temperature was raised to 90° C. at a rate of 0.5° C. per minute, and the absorbance at 260 nm was plotted at intervals of 0.5° C. All Tm values were calculated by the midline method and the average of three independent measurement results was taken.
Substance,Tm [1] [°C],ΔTm/mod. [1],Tm (N = A) [2] [°C],Tm [2] [°C],ΔTm/mod. [2],"ΔTm (N = U), in parentheses [3]",Tm (N = U) [3] [°C],"ΔTm (N = C), in parentheses [4]",Tm (N = C) [4] [°C],"ΔTm (N = G), in parentheses [5]",Tm (N = G) [5] [°C],ΔTm/mod. [6],Tm [6] [°C]
"5′-GGATGXTCTCGT-3′: modified oligonucleotide with one X modification; X not defined in the visible text (DNA GGATGTTCTCGT; DNA oligonucleotide with modified nucleotide X, X not given here, further chemistry not given here)",53,+2.0 °C,58,58,+6.0 °C,-14 º C.,44,-15 º C.,43,-5 º C.,53,–,–
5′ -TCTTCXTXTXCTCT-3′: modified oligonucleotide with three separated X modifications (DNA TCTTCTTTTTCTCT; three X modified nucleotides; (2)..(2) 2′-Deoxy-5-methylcytidine; (5)..(5) 2′-Deoxy-5-methylcytidine; misc_difference (6)..(6) Me-TaNA; misc_difference (8)..(8) Me-TaNA; misc_difference (10)..(10) Me-TaNA; (11)..(11) 2′-Deoxy-5-methylcytidine; (13)..(13) 2′-Deoxy-5-methylcytidine),–,–,–,–,–,–,–,–,–,–,–,+7.3 °C,53
5′ -TCTTCTTYTTCTCT-3′: modified oligonucleotide with one Y modification; C shows 2′-deoxy-5-methylcytidine (DNA TCTTCTTTTTCTCT; Y modified nucleotide; 5-methylcytidines; (2)..(2) 2′-Deoxy-5-methylcytidine; (5)..(5) 2′-Deoxy-5-methylcytidine; misc_difference (8)..(8) LNA; (11)..(11) 2′-Deoxy-5-methylcytidine; (13)..(13) 2′-Deoxy-5-methylcytidine),–,–,–,–,–,–,–,–,–,–,–,+6.0 °C,37
5′-GGATGYTCTCGT-3′: modified oligonucleotide with one Y modification; Y not defined in the visible text (DNA GGATGTTCTCGT; Y modified nucleotide; misc_difference (6)..(6) LNA),54,+3.0 °C,58,58,+6.0 °C,-13 º C.,45,-14 º C.,44,-5 º C.,53,–,–
5′ -TCTTCTXXXTCTCT-3′: modified oligonucleotide with three consecutive X modifications (DNA TCTTCTTTTTCTCT; three X modified nucleotides; (2)..(2) 2′-Deoxy-5-methylcytidine; (5)..(5) 2′-Deoxy-5-methylcytidine; misc_difference (7)..(7) Me-TaNA; misc_difference (8)..(8) Me-TaNA; misc_difference (9)..(9) Me-TaNA; (11)..(11) 2′-Deoxy-5-methylcytidine; (13)..(13) 2′-Deoxy-5-methylcytidine),–,–,–,–,–,–,–,–,–,–,–,+6.3 °C,50
5′ -TCTTCTTXTTCTCT-3′: modified oligonucleotide with one X modification; C shows 2′-deoxy-5-methylcytidine (DNA TCTTCTTTTTCTCT; X modified nucleotide; 5-methylcytidines; (2)..(2) 2′-Deoxy-5-methylcytidine; (5)..(5) 2′-Deoxy-5-methylcytidine; misc_difference (8)..(8) Me-TaNA; (11)..(11) 2′-Deoxy-5-methylcytidine; (13)..(13) 2′-Deoxy-5-methylcytidine),–,–,–,–,–,–,–,–,–,–,–,+5.0 °C,36
5′ -TCTTCTYYYTCTCT-3′: modified oligonucleotide with three consecutive Y modifications (DNA TCTTCTTTTTCTCT; three Y modified nucleotides; (2)..(2) 2′-Deoxy-5-methylcytidine; (5)..(5) 2′-Deoxy-5-methylcytidine; misc_difference (7)..(7) LNA; misc_difference (8)..(8) LNA; misc_difference (9)..(9) LNA; (11)..(11) 2′-Deoxy-5-methylcytidine; (13)..(13) 2′-Deoxy-5-methylcytidine),–,–,–,–,–,–,–,–,–,–,–,+5.0 °C,46
5′ -TCTTCTTZTTCTCT-3′: modified oligonucleotide with one Z modification; C shows 2′-deoxy-5-methylcytidine (DNA TCTTCTTTTTCTCT; Z modified nucleotide; 5-methylcytidines; (2)..(2) 2′-Deoxy-5-methylcytidine; (5)..(5) 2′-Deoxy-5-methylcytidine; misc_difference (8)..(8) ENA; (11)..(11) 2′-Deoxy-5-methylcytidine; (13)..(13) 2′-Deoxy-5-methylcytidine),–,–,–,–,–,–,–,–,–,–,–,+5.0 °C,36
5′ -TCTTCZTZTZCTCT-3′: modified oligonucleotide with three separated Z modifications (DNA TCTTCTTTTTCTCT; three Z modified nucleotides; (2)..(2) 2′-Deoxy-5-methylcytidine; (5)..(5) 2′-Deoxy-5-methylcytidine; misc_difference (6)..(6) ENA; misc_difference (8)..(8) ENA; misc_difference (10)..(10) ENA; (11)..(11) 2′-Deoxy-5-methylcytidine; (13)..(13) 2′-Deoxy-5-methylcytidine),–,–,–,–,–,–,–,–,–,–,–,+6.7 °C,51
"5′-GGATGTTCTCGT-3′: unmodified (natural) oligonucleotide, SEQ ID NO: 1 (unmodified DNA)",51,–,52,52,–,-12 º C.,40,-14 º C.,38,-4 º C.,48,–,–
5′-GGATGZTCTCGT-3′: modified oligonucleotide with one Z modification; Z not defined in the visible text (DNA GGATGTTCTCGT; Z modified nucleotide; misc_difference (6)..(6) ENA),52,+1.0 °C,58,58,+6.0 °C,-13 º C.,45,-15 º C.,43,-4 º C.,54,–,–
